In article PMC10872270 (Cell reports, 2023):

Assays:
MDA-MB-453 cells = test: SRB proliferation assay in growth medium; type: cell-based; conditions: parental MDA-MB-453 cells, seven days
MDA-MB-453-AR-V7 cells = test: SRB proliferation assay in growth medium; type: cell-based; conditions: seven days
AR = target: T1, AR (Homo sapiens, UniProt P10275); conditions: HEK-293 cells
T1 sequence (P10275 1-920): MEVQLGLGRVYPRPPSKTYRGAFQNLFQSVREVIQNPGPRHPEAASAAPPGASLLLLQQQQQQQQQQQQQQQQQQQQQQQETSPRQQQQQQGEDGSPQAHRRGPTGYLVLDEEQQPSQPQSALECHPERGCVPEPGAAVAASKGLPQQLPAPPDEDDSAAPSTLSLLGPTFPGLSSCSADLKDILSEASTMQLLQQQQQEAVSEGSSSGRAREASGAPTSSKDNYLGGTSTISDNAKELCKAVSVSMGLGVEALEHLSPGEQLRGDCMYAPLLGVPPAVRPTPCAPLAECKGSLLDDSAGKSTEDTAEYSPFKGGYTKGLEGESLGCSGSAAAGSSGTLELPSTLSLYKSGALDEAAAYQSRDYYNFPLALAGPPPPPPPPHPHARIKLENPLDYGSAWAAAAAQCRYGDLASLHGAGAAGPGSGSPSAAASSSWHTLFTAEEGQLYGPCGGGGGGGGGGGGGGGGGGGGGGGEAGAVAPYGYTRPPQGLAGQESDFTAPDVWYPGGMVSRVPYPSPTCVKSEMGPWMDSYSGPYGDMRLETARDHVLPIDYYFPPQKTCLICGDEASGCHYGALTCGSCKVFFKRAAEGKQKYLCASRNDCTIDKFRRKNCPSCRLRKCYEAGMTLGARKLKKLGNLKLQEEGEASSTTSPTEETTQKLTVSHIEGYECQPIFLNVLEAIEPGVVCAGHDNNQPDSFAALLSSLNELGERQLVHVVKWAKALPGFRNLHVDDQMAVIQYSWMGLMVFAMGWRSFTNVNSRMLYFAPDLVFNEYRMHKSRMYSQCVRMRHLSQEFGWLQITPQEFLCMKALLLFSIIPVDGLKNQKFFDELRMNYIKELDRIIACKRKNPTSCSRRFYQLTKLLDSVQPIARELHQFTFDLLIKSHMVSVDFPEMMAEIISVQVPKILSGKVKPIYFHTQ

FKBP5 = test: R1881-induced FKBP5 expression in MDA-MB-453 cells; conditions: 0.1 nM R1881, 3 μM, 24 hours
STAT1 phosphorylation = test: Interferon α-induced STAT1 phosphorylation in MDA-MB-453 cells; type: cell-based; conditions: 3 μM pretreated for 24 hours, interferon α 30 minutes
[1] = tested on: AR-target genes FKBP5, STEAP4, and TMPRSS2; test: AR-target gene expression by real-time PCR in MDA-MB-453 cells; type: cell-based; conditions: 16–20 hours
MDA-MB-453 tumors = test: RNA-seq of MDA-MB-453 xenograft tumors; type: in vivo, mice; conditions: MDA-MB-453 xenograft tumors vs vehicle
MDA-MB-453 xenograft = conditions: female mice supplemented with DHT; cited from earlier work
UT-1355 PDX = test: UT-1355 TNBC PDX orthotopic xenograft; type: in vivo; conditions: female NSG mice; expresses AR-FL and AR-V7
[2] = tested on: patients expressing AR-V7; conditions: clinical trial; alone or in combination with PI3K inhibitor taselisib; cited from earlier work

| SMILES | cell proliferation (MDA-MB-453 cells) | cell proliferation (MDA-MB-453-AR-V7 cells) | R1881-dependent AR transactivation in the absence of STAT1 (AR) | STAT1-dependent increase in AR transactivation (AR; 0.1 μg STAT1) | R1881-induced expression of FKBP5 (FKBP5) | interferon-α-induced phosphorylation of STAT1 (STAT1 phosphorylation) | R1881-stimulated expression of FKBP5 [1] | R1881-stimulated expression of STEAP4 [1] | R1881-stimulated expression of TMPRSS2 [1] | differentially expressed genes in treated tumors (MDA-MB-453 tumors) | MDA-MB-453 xenograft growth (MDA-MB-453 xenograft) | growth of UT-1355 PDX (UT-1355 PDX) | effect in patients expressing AR-V7 [2] |
| --- | --- | --- | --- | --- | --- | --- | --- | --- | --- | --- | --- | --- | --- |
| N#CC[C@H](C1CCCC1)n1cc(-c2ncnc3[nH]ccc23)cn1 [ruxolitinib] | comparable inhibition | comparable inhibition | no effect | inhibited | completely inhibited | completely inhibited |  |  |  |  |  |  |  |
| CNC(=O)c1ccc(N2C(=S)N(c3ccc(C#N)c(C(F)(F)F)c3)C(=O)C2(C)C)cc1F [enzalutamide] |  |  |  |  |  |  | inhibited | inhibited | inhibited | eight | inhibits | modestly effective | failed to have an effect |
